Data reported in KR20140134170A, “신경염증 질환의 예방 또는 치료용 약학 조성물” (이화여자대학교 산학협력단, priority 2013, dated 2014).

Tests used:
TNF-α [1] = test: TNF-α protein expression in cerebral cortex of LPS systemic inflammation mice (western blot); format: in vivo, mouse; settings: 3 h after LPS, vs vehicle
[2] = Neurological score in ischemic stroke model MCAo/Rep; format: in vivo, rat; settings: 5 mg/kg i.p. once immediately after reperfusion; vs control; P=0.0047
AP-1 = AP-1 DNA complex formation in LPS-activated BV2 microglia (EMSA); format: cell-based, mouse; settings: LPS 100 ng/ml 3 h, compound 1 h before LPS
[3] = Brain infarct volume in ischemic stroke model MCAo/Rep (TTC staining); format: in vivo, rat; settings: 5 mg/kg i.p. once immediately after reperfusion, 22 h after reperfusion
brain cells [뇌세포] = test: Brain cell damage in ischemic stroke model MCAo/Rep (Nissl staining); format: in vivo, rat; settings: 5 mg/kg i.p. once immediately after reperfusion; cortex and striatum; 22 h after reperfusion
IL-10 = IL-10 production by LPS-activated BV2 microglia (sandwich ELISA); format: cell-based, mouse; settings: LPS 100 ng/ml, compound 1 h before LPS
nitric oxide [산화질소] = test: Nitric oxide production by LPS-activated BV2 microglia (Griess reaction); format: cell-based, mouse; settings: LPS 100 ng/ml, compound 1 h before LPS
TNF-α [4] = test: Serum TNF-α in LPS systemic inflammation mice (sandwich ELISA); format: in vivo, mouse; settings: 3 h after LPS
p38 = p38 activation in LPS-activated BV2 microglia (western blot, p-p38); format: cell-based, mouse; settings: LPS 100 ng/ml 3 h, compound 1 h before LPS
NF-κB = NF-κB DNA complex formation in LPS-activated BV2 microglia (EMSA); format: cell-based, mouse; settings: LPS 100 ng/ml 3 h, compound 1 h before LPS
TNF-α [5] = test: TNF-α producing cells in ischemic stroke model MCAo/Rep (immunohistochemistry); format: in vivo, rat; settings: 5 mg/kg i.p. once immediately after reperfusion; stroke hemisphere; 22 h after reperfusion; stroke control 648.3±64.70; P<0.05
microglia [소교세포] [6] = test: Microglial activation in cerebral cortex of LPS systemic inflammation mice (Iba1 immunofluorescence); format: in vivo, mouse; settings: 3 h after LPS
JNK = JNK activation in LPS-activated BV2 microglia (western blot, p-JNK); format: cell-based, mouse; settings: LPS 100 ng/ml 3 h, compound 1 h before LPS
TNF-α [7] = test: TNF-α release from LPS-activated BV2 microglia (sandwich ELISA); format: cell-based, mouse; settings: LPS 100 ng/ml, compound 1 h before LPS
IL-6 = IL-6 production by LPS-activated BV2 microglia (sandwich ELISA); format: cell-based, mouse; settings: LPS 100 ng/ml, compound 1 h before LPS
ERK = ERK activation in LPS-activated BV2 microglia (western blot, p-ERK); format: cell-based, mouse; settings: LPS 100 ng/ml 3 h, compound 1 h before LPS
microglia [소교세포] [8] = test: Microglial activation in ischemic stroke model MCAo/Rep (Iba-1 immunohistochemistry); format: in vivo, rat; settings: 5 mg/kg i.p. once immediately after reperfusion; stroke hemisphere; 22 h after reperfusion; stroke control 138.8±7.4; P<0.01
[9] = test system: intracellular reactive oxygen species [세포내 활성산소종 (reactive oxygen species; ROS)]; test: Intracellular reactive oxygen species in LPS-activated BV2 microglia (H2DCF-DA fluorescence); format: cell-based, mouse
TNF-α [10] = test: Cerebrospinal fluid TNF-α in LPS systemic inflammation mice (sandwich ELISA); format: in vivo, mouse; settings: vs vehicle
MK2 = MK2 activation in LPS-activated BV2 microglia (western blot, p-MK2); format: cell-based, mouse; settings: LPS 100 ng/ml 3 h, compound 1 h before LPS
IL-1β = IL-1β protein expression in cerebral cortex of LPS systemic inflammation mice (western blot); format: in vivo, mouse; settings: 3 h after LPS, vs vehicle

Question: Which “TNF-α expression in cerebral cortex” value (TNF-α [1]; 1 mg/kg i.p.) does the source give for `COc1ccc(S(=O)(=O)N2Cc3ccccc3C[C@@H]2C(=O)NO)cc1` [본 발명의 화합물, (3R)-(+)-[2-(4-메톡시벤젠설포닐)-1,2,3,4-테트라하이드로이소퀴놀린-3-하이드록사메이트] here?
Answer: 비이클 투여와 차이가 없었으나

Question: What about the “decrease of TNF-α expression in cerebral cortex” value (TNF-α [1]; 5 mg/kg i.p.) of the same compound?
Answer: 40%

Question: And the “neurological score (maximum 18)” value [2]?
Answer: 유의적 감소

Question: What about the AP-1 complex formation (AP-1) of the same compound?
Answer: 감소됨

Question: And the “infarct volume (infarct volume / whole brain volume × 100)” value ([3]; MCAo/Rep control 29.17%)?
Answer: 18.90%

Question: And the “decrease of infarct size vs control” value ([3]; P=0.0452)?
Answer: ~35.21%

Question: And the “brain cell damage by stroke” value (brain cells [뇌세포])?
Answer: 극명하게 감소

Question: And the IL-10 production (IL-10)?
Answer: 생성을 증가시키는 것

Question: And the nitric oxide production (nitric oxide [산화질소])?
Answer: 농도 의존적으로 억제됨

Question: What about the “serum TNF-α level” value (TNF-α [4]; 5 mg/kg i.p. daily from 4 days before LPS 5 mg/kg i.p.) of the same compound?
Answer: 현저히 감소

Question: And the “serum TNF-α level” value (TNF-α [4]; 1 and 5 mg/kg i.p. daily from 4 days before LPS 5 mg/kg i.p., dose dependence)?
Answer: 용량의존적으로 TNF-α수준이 감소

Question: What about the “activated p38” value (p38) of the same compound?
Answer: 농도 의존적으로 감소함

Question: And the NF-κB complex formation (NF-κB)?
Answer: 감소됨

Question: What about the “number of TNF-α producing cells” value (TNF-α [5]) of the same compound?
Answer: 402.8±74.73 cells

Question: What about the “number of activated microglia” value (microglia [소교세포] [6]; 1 mg/kg i.p., vs vehicle) of the same compound?
Answer: 비이클 투여와 차이가 없었으나

Question: And the “number of activated Iba1-labelled cells (microglia)” value (microglia [소교세포] [6]; 5 mg/kg i.p., area 500 μm2, control 10.12±1.45, LPS 41.17±2.95, p<0.01 vs vehicle)?
Answer: 20.0±3.82

Question: What about the “activated JNK” value (JNK) of the same compound?
Answer: 농도 의존적으로 감소함

Question: What about the TNF-α production (TNF-α [7]) of the same compound?
Answer: 현저하게 감소됨

Question: What about the IL-6 production (IL-6) of the same compound?
Answer: 농도 의존적으로 억제됨

Question: And the “activated ERK” value (ERK)?
Answer: 농도 의존적으로 감소함

Question: And the “number of activated microglia” value (microglia [소교세포] [8])?
Answer: 47.67±10.73 cells

Question: And the “intracellular reactive oxygen species” value ([9]; compound at 10 μM or more, compared with control)?
Answer: 대조군과 유사한 수준으로 감소됨

Question: And the “intracellular reactive oxygen species” value ([9]; concentration dependence)?
Answer: 농도 의존적으로 억제함

Question: What about the “cerebrospinal fluid TNF-α level” value (TNF-α [10]; 1 mg/kg i.p. daily from 4 days before LPS) of the same compound?
Answer: 통계적으로 의미있는 TNF-α발현 감소

Question: What about the “cerebrospinal fluid TNF-α level” value (TNF-α [10]; 5 mg/kg i.p. daily from 4 days before LPS) of the same compound?
Answer: 통계적으로 의미있는 TNF-α발현 감소

Question: What about the “activated MK2” value (MK2) of the same compound?
Answer: 농도 의존적으로 감소함

Question: And the “IL-1β expression in cerebral cortex” value (IL-1β; 1 mg/kg i.p.)?
Answer: 비이클 투여와 차이가 없었으나

Question: What about the “decrease of IL-1β expression in cerebral cortex” value (IL-1β; 5 mg/kg i.p.) of the same compound?
Answer: 50%
